Reference: patent US4608378A, “Tetrahydroisoxazolo[4,5-c]pyridine derivatives useful in the treatment of malfunctions of the acetylcholine or muscarinic systems” (H. Lundbeck A/S, priority 1983, dated 1986)
Read-outs that look alike come from different tables or passages of the source.

Key:
[1] = tested on: muscarinic cholinergic receptors (guinea pig ileum); test: Muscarinic cholinergic agonism, guinea pig ileum; assay type: cell-based; conditions: Cavia porcellus; isolated guinea pig ileum, contraction, log-probit analysis; read-out: Musc. agonism ileum ED50
Experimental: Muscarinic cholinergic agonism, guinea pig ileum
Tyrode solution (NaCl 137 mM, KCl 2.7 mM, CaCl2 1.8 mM, MgCl2 1.1 mM, NaH2 PO4 0.32 mM, NaHCO3 4.8 mM, glucose 5.0 mM) foregassed with oxygen.
A guinea pig is killed by a blow on its head and exsanguinated. The caudal part (about 15 cm) of ileum is removed and cleaned in Tyrode solution. Three ileum pieces (2.5-3.0 cm long) are cut and placed separately in 10 ml organ baths containing Tyrode solution. Each specimen is fixed to a pin in the bottom of the organ bath and connected through a spring to a Grass FT 03 transducer (isotonic measurement). The specimens are kept under a tone of 1.0 g.
Concentration response curves to acetylcholine and test drugs are obtained by adding alternately acetylcholine and the test drugs in Tyrode solution to the both in 3-6 different concentrations. Each concentration is allowed to exert its maximal contracting effect before the tissue is washed and the next concentration is added.
From the concentration effect curves the […] values for acetylcholine and the test drugs are calculated by log-probit analysis.

[2] = molecular target: muscarinic cholinergic receptors; test: 3H-PrBCM binding to muscarinic cholinergic receptors (brain); conditions: rat whole brain minus cerebellum; 1.5 nM 3H-PrBCM, 30° C.
Experimental: ^3 --H-PrBCM binding to muscarinic cholinergic receptors
Whole brain minus cerebellum of a rat was homogenized in 10 vol icecold 0.32M sucrose, pH 7.4. The homogenate was centrifuged at 600 g for 10 minutes and the supernatant at 25000 g for 55 min. at 4° C. with rehomogenization of the pellet in 0.32M sucrose. Incubation tubes in triplicate received at 30° C. test substance and tissue suspension. After 10 min. of incubation ligand (NEN,28-44 Ci/mmol) was added (final conc. of ^3 H-PrBCM: 1.5 nM). After 15 min. of incubation the reaction was stopped by addition of sodiumthiosulphate. The samples were filtered through Whatman GF/B filters (25 mm). The tubes and filters were rinsed twice with buffer. Non-specific binding was determined in the presence of 2.5 μM atropine. IC50 values were calculated by log probit analysis.

[3] = tested on: isoniazide-induced seizures in mice; test: Isoniazide antagonism (convulsions); assay type: in vivo; conditions: Mus musculus, ip, read-out: Isoniazide antagonism ED50
Experimental: Isoniazide 300 mg/kg s.c.
Five mice are used for each dose level. Immediately after administration of test substance, isoniazide 300 mg/kg is injected s.c. This dose of isoniazide induces intermittent tonic clonic seizures within 60 minutes.
The calculations are performed as an "on-line procedure" on the EDP-terminal. The results are recorded as % increase in time until convulsions occur and, ED50 values were determined.

pain threshold in mice = test: Mouse Grid Shock (pain threshold); assay type: in vivo; conditions: ip, read-out: Grid shock MED
Experimental: The mouse grid consists of a perspex cage with wire grid bottom and a perspex lid, on which is placed a microphone sensitive to the frequency of mouse-squeak. A stimulator with motordriven potentiometer applies a sequence of square wave impulses of continuously increasing milliamperage to the grid. Frequence of impulses 20 cycles/sec., duration 5 msec. Milliamperage is recorded on a digital amperemter connected to the stimulator. Activation of the microphone by a mouse-squeak cuts off the current and the final milliamperage appear on the meter.
Five mice are used for each dose level. Each mouse serves as its own control. Prior to the administration of test substance the animals are placed on the grid one at a time, and the pain threshold is determined by increasing the current intensity until the mouse squeaks. The pain threshold may be read on the milliampermeter. Fifteen minutes and 30 minutes after administration of test substance the mice are tested again and the pain thresholds recorded.
Analgesic effect is present when the pain threshold is increased over the predosing value (control value). The results are stated as % increase in pain threshold calculated on the basis of the control value. The registration can also be done as an on-line procedure. In this case the punching instruction and punching cards will be provided automatically, and the results will be registered as a minimal effective dose (MED) determined after van der Waerden's X-test.

[4] = tested on: heat stimulus reaction in rats; test: Hot Plate Test; assay type: in vivo; conditions: Rattus norvegicus, sc, 0.5 h, s.c., 55° C. hot plate, 30 minutes after injection
Experimental: A group of 10 rats was used for each dose. Each rat was placed on a 55° C. hot plate and the reaction time in seconds was recorded from the moment the rat was placed on the plate until the rat reacted to the heat stimulus. The criteria for reaction were licking of paws, lifting of legs or jumping. The rat was removed from the plate immediately after the reaction. The rat was rejected if the reaction time was more than 10 seconds. After control testing the test substance was injected subcutaneously. The rat was tested on the hot plate 30 minutes after the injection and the reaction times were recorded. A cut-off time of 30 seconds was used. The results were expressed as mean percent effect (MPE), and ED50 values were calculated.

AcCh receptors = conditions: background statement; cited from earlier work
[5] = cited from earlier work
[6] = peripheral administration; cited from earlier work
[7] = peripheral administration; cited from earlier work; remark: listed apart in the source
[8] = mice, test compound i.p., isoniazide 300 mg/kg s.c., time until convulsions
[9] = mice, minimal effective dose, increase in pain threshold, test substance i.p. (may be tested orally)

Row | SMILES | EC50 [1] | IC50 [2] | ED50 [3, 8] | minimal effective dose (pain threshold in mice; [9]) | ED50 [4] | ED50 [3] | minimal effective dose (pain threshold in mice) | AcCh agonist (AcCh receptors) | hydrolysis of ester group in vivo [5] | penetration of the BBB [6] | central effects [7]
1 | COc1noc2c1CNCC2C (racemic) [O,7-Dimethyl-THPO, 3-Methoxy-7-methyl-4,5,6,7-tetrahydroisoxazolo[4,5-c]pyridine] | 13 µM | 12 µM | 110 µmol/kg | 98 µmol/kg | > 98 µmol/kg |  |  |  |  |  | 
2 | CC=CCOc1noc2c1CNCC2 [O--Crotyl-THPO, 3-(2-Butenyloxy)-4,5,6,7-tetrahydroisoxazolo[4,5-c]pyridine] | > 13 µM | 14 µM | < 43 µmol/kg | 170 µmol/kg | > 87 µmol/kg |  |  |  |  |  | 
3 | CCOc1noc2c1CNCC2 [O--Ethyl-THPO, 3-Ethoxy-4,5,6,7-tetrahydroisoxazolo[4,5-c]pyridine] | 3.4 µM | 6 µM | 7.3 µmol/kg | > 98 µmol/kg | > 98 µmol/kg |  |  |  |  |  | 
4 | CC(C)Oc1noc2c1CNCC2 [O--Isopropyl-THPO, 3-Isopropoxy-4,5,6,7-tetrahydroisoxazolo[4,5-c]pyridine] | > 13 µM | 3.5 µM | 19 µmol/kg | > 46 µmol/kg | > 91 µmol/kg |  |  |  |  |  | 
5 | CCN1CCc2onc(OC)c2C1 [O--Methyl-5-Ethyl-THPO, 3-Methoxy-5-ethyl-4,5,6,7-tetrahydroisoxazolo[4,5-c]pyridine] | > 13 µM | 15 µM | 84 µmol/kg | 84 µmol/kg |  |  |  |  |  |  | 
6 | Oc1noc2c1CNCC2 [THPO, 3-Hydroxy-4,5,6,7-tetrahydroisoxazolo[4,5-c]pyridinium bromide, reference compound] | > 13 µM |  |  |  | > 90 µmol/kg | > 1500 µmol/kg | > 1500 µmol/kg |  |  |  | 
7 | COc1noc2c1CN(C)CC2 [O,5-Dimethyl-THPO, 3-Methoxy-5-methyl-4,5,6,7-tetrahydroixoxazolo[4,5-c]pyridine] | 0.83 µM | 27 µM | 29 µmol/kg | 49 µmol/kg | 99 µmol/kg |  |  |  |  |  | 
8 | CCCOc1noc2c1CNCC2 [O--Propyl-THPO, 3-Propoxy-4,5,6,7-tetrahydroisoxazolo[4,5-c]pyridine] | > 13 µM | 10 µM | 50 µmol/kg | > 91 µmol/kg | > 91 µmol/kg |  |  |  |  |  | 
9 | CC(C)COc1noc2c1CNCC2 [O--Isobutyl-THPO, 3-Isobutoxy-4,5,6,7-tetrahydroisoxazolo[4,5-c]pyridine] | > 13 µM | > 13 µM | 48 µmol/kg | > 86 µmol/kg | > 86 µmol/kg |  |  |  |  |  | 
10 | c1ccc(COc2noc3c2CNCC3)cc1 [O--Benzyl-THPO, 3-Benzyloxy-4,5,6,7-tetrahydroisoxazolo[4,5-c]pyridine] | > 13 µM | 32 µM | 19 µmol/kg | > 150 µmol/kg | > 75 µmol/kg |  |  |  |  |  | 
11 | C#CCOc1noc2c1CNCC2 [O--Propargyl-THPO, 3-(2-Propynyloxy)-4,5,6,7-tetrahydroisoxazolo[4,5-c]pyridine] | 1.2 µM | 5.8 µM | 3 µmol/kg | 11 µmol/kg | 86 µmol/kg |  |  |  |  |  | 
12 | C=CCOc1noc2c1CNCC2 [O--Allyl-THPO, 3-Allyloxy-4,5,6,7-tetrahydroisoxazolo[4,5-c]pyridine] | > 13 µM | 9.6 µM | 23 µmol/kg | 46 µmol/kg | > 92 µmol/kg |  |  |  |  |  | 
13 | COC(=O)C1=CCCN(C)C1 [Arecoline, methyl 1-methyl-1,2,5,6-tetrahydropyridine-3-carboxylate] |  |  |  |  |  |  |  | AcCh agonist | very rapidly hydrolyzed in vivo | capable of penetrating the BBB after peripheral administration | very weak and frequently negligible central effects
14 | COc1noc2c1CNCC2 [O--Methyl-THPO, 3-Methoxy-4,5,6,7-tetrahydroisoxazolo[4,5-c]pyridine] | 1.8 µM | 45 µM | 2.8 µmol/kg | 26 µmol/kg | 62 µmol/kg |  |  |  |  |  | 
15 | COc1noc2c1CN(Cc1ccccc1)CC2 [O--Methyl-5-Benzyl-THPO, 3-Methoxy-5-benzyl-4,5,6,7-tetrahydroisoxazolo[4,5-c]pyridine] | > 13 µM | > 50 µM | 71 µmol/kg | > 71 µmol/kg | > 71 µmol/kg |  |  |  |  |  | 
16 | CCCCOc1noc2c1CNCC2 [O--Butyl-THPO, 3-Butoxy-4,5,6,7-tetrahydroisoxazolo[4,5-c]pyridine] | > 13 µM | 15 µM | > 170 µmol/kg | > 170 µmol/kg | > 86 µmol/kg |  |  |  |  |  | 
17 | CCOc1noc2c1CN(C)CC2 [O--Ethyl-5-Methyl-THPO, 3-Ethoxy-5-methyl-4,5,6,7-tetrahydroisoxazolo[4,5-c]pyridine] | 1.6 µM | 2.4 µM | 41 µmol/kg | > 91 µmol/kg | > 91 µmol/kg |  |  |  |  |  | 
